Experimental findings from US20230078764A1 (Yumanity Therapeutics, Inc., priority 2019, published 2023) are described below.

The target of one experiment is T1, human SCD1 (Homo sapiens, UniProt O00767).
T1 construct: expressed in transfected cells; host or cells: yeast strain with OLE1 deleted, plasmid-borne human SCD1 (selected in SD-Ura)
T1 sequence (O00767 1-359): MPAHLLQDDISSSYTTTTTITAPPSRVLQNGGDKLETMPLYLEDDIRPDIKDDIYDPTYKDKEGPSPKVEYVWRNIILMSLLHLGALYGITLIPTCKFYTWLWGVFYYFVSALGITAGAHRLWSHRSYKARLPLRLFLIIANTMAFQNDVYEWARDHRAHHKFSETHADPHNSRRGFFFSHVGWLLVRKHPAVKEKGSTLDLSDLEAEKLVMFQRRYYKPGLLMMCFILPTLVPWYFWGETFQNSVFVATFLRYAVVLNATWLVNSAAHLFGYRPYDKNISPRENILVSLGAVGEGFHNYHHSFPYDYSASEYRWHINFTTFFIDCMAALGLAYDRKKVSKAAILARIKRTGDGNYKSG
Briefly: Growth inhibition of yeast strain expressing human SCD1 as sole desaturase (OLE1 deleted), OD600 readout. Type of experiment: cell-based. Conditions: yeast strain expressing human SCD1 as sole desaturase; growth (OD600) after 40 h at 30° C.; read-out: SCD1 IC50.

The target in another experiment is T2, human SCD5 (Homo sapiens, UniProt Q86SK9).
T2 construct: expressed in transfected cells; host or cells: yeast strain with OLE1 deleted, plasmid-borne human SCD5 (selected in SD-Ura)
T2 sequence (Q86SK9 1-330): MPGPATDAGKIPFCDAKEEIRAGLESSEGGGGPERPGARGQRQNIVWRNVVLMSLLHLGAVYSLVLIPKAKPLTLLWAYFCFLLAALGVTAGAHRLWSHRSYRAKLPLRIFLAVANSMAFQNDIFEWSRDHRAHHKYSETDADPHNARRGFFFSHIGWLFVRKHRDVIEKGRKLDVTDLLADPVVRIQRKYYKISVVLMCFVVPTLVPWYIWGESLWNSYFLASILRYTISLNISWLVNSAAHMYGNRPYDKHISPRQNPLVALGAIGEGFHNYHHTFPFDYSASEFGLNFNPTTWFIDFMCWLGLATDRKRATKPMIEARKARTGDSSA
The experiment can be described thus: Growth inhibition of yeast strain expressing human SCD5 as sole desaturase (OLE1 deleted), OD600 readout. The format is cell-based. The following applies: yeast strain expressing human SCD5 as sole desaturase; growth (OD600) after 40 h at 30° C.; read-out: SCD5 IC50.

What is called IC50 is the concentration needed to halve the response being measured.

As to `CN1N=C(C(=O)Nc2ccc(COc3cccc(F)c3)cn2)CCC1=O` [Compound 260], the IC50 on human SCD1 came out at 4580 nM; at human SCD5 it was 170 nM.

For the molecule `CN1N=C(C(=O)Nc2ccc(COc3cccc(Cl)c3)cn2)CCC1=O` [Compound 261], the IC50 at human SCD1 was 1420 nM; on human SCD5, 50 nM.

In the case of `Cn1nc(C(=O)Nc2ccc(COc3cccc(Cl)c3)cn2)ccc1=O` [Compound 262], the IC50 at human SCD1 was 3980 nM; at human SCD5, 260 nM.

Take `CCn1cc(C(=O)Nc2ccc(COc3cccc(Cl)c3)cn2)ccc1=O` [Compound 264]: the results for the concentration for half-maximal inhibition (IC50) at human SCD1 and on human SCD5 were > 45000 nM and 8840 nM, respectively.

Regarding `CN1N=C(C(=O)Nc2ccc(COc3ccc(F)c(Cl)c3)cn2)CCC1=O` [Compound 265], the IC50 on human SCD1 is 23300 nM; on human SCD5, 350 nM.

Take `Cn1cc(C(=O)Nc2ccc(COc3ccc(F)c(Cl)c3)cn2)ccc1=O` [Compound 266]: the IC50 was 1850 nM on human SCD1 and 400 nM at human SCD5.

For `Cn1cc(C(=O)Nc2ccc(Cc3cc(F)c(F)c(F)c3)nn2)ccc1=O` [Compound 267], the half-maximal inhibitory concentration (IC50) is > 45000 nM on human SCD1 and 10600 nM on human SCD5.

Turning to `CN1N=C(C(=O)Oc2ccc(NCc3cccc(Br)c3)nc2)CCC1=O` [Compound 268], the figures for the IC50 at human SCD1 and at human SCD5 were > 45000 nM and 3040 nM, respectively.

As for `CN1N=C(C(=O)Oc2ccc(NCc3cc(F)cc(C#N)c3)nc2)CCC1=O` [Compound 269], the values for the IC50 on human SCD1 and on human SCD5 were > 45000 nM and 30 nM, respectively.

In the case of `CN1N=C(C(=O)Nc2ccc(OCc3cc(F)cc(C#N)c3)cn2)CCC1=O` [Compound 270], the figures for the IC50 on human SCD1 and at human SCD5 were > 45000 nM and 6880 nM, respectively.

Regarding `CN1N=C(C(=O)Nc2ccc(Cc3cccs3)nn2)CCC1=O` [Compound 271], the IC50 was > 45000 nM on human SCD1 and 14800 nM at human SCD5.

With `O=C(Nc1ccc(Cc2cccc(F)c2)cn1)c1ccc(=O)n(C2COC2)c1` [Compound 272], the IC50 on human SCD1 was > 45000 nM; at human SCD5, 13000 nM.

For the molecule `O=C(Nc1ccc(Cc2cccc(Cl)c2)cn1)c1ccc(=O)n(C2COC2)c1` [Compound 273], the IC50 is > 45000 nM at human SCD1 and 3250 nM on human SCD5.

`CN1N=C(C(=O)Nc2ccc(Cc3cncc(Cl)c3)cn2)CCC1=O` [Compound 274]: the values for the IC50 on human SCD1 and on human SCD5 were > 45000 nM and 760 nM, respectively.

Regarding `Cn1nc(C(=O)Nc2ccc(Cc3cncc(Cl)c3)cn2)ccc1=O` [Compound 275], the results for the IC50 at human SCD1 and at human SCD5 were > 45000 nM and 3020 nM, respectively.

In the case of `Cn1cc(C(=O)Nc2ccc(Cc3cncc(Cl)c3)cn2)ccc1=O` [Compound 276], the IC50 at human SCD1 is > 45000 nM; on human SCD5, 950 nM.

With `CN1N=C(C(=O)Nc2ccc(Cc3cncc(C(F)(F)F)c3)cn2)CCC1=O` [Compound 277], the figures for the IC50 at human SCD1 and at human SCD5 were > 45000 nM and 13400 nM, respectively.

Take `Cn1nc(C(=O)Nc2ccc(Cc3cc(C(F)(F)F)ccn3)cn2)ccc1=O` [Compound 278]: the IC50 at human SCD1 came to 39900 nM; at human SCD5, 2030 nM.

Turning to `Cn1cc(C(=O)Nc2ccc(Cc3cc(C(F)(F)F)ccn3)cn2)ccc1=O` [Compound 279], the IC50 at human SCD1 was 21500 nM; on human SCD5, 1960 nM.

For the molecule `Cn1nc(C(=O)Nc2ccc(Cc3cccc(F)c3)cn2)cc(Br)c1=O` [Compound 280], the IC50 came out at 130 nM on human SCD1 and 20 nM at human SCD5.

Consider `CN1N=C(C(=O)Nc2ccc(NCc3cccc(F)c3)cn2)CCC1=O` [Compound 281], for which the values for the IC50 on human SCD1 and on human SCD5 were > 45000 nM and 2750 nM, respectively.

For the molecule `COc1cc(Cl)cc(Cc2ccc(NC(=O)c3ccc(=O)n(C)n3)nc2)c1` [Compound 282], the IC50 on human SCD1 stood at 210 nM; on human SCD5 it was 20 nM.

For `Cn1c(C(=O)Nc2ccc(Cc3cccc(F)c3)cn2)coc1=O` [Compound 283], the IC50 was 2960 nM at human SCD1 and 270 nM at human SCD5.

With `CN(C)C(=O)c1ccc(NC(=O)c2ccc(Cc3cccc(Cl)c3)cn2)cc1` [Compound 284], the IC50 at human SCD1 is > 45000 nM; on human SCD5, 4520 nM.

With `O=C(Nc1ccc(Cc2cccc(F)c2)cn1)c1ccn(C2CC2)n1` [Compound 285], the half-maximal inhibitory concentration (IC50) on human SCD1 worked out at 9410 nM; on human SCD5 it was 1430 nM.

On to `Cn1nc(C(=O)Nc2ccc(NCc3cccc(Cl)c3)cn2)ccc1=O` [Compound 286], for which the values for the IC50 at human SCD1 and on human SCD5 were 4000 nM and 240 nM, respectively.

Regarding `O=C(Nc1ccc(Cc2cccc(F)c2)cn1)c1ccc(=O)n(C(F)F)c1` [Compound 287], the results for the IC50 on human SCD1 and at human SCD5 were 860 nM and 140 nM, respectively.

In the case of `CN1N=C(C(=O)Nc2ccc(/C=C/c3cccc(Cl)c3)nn2)CCC1=O` [Compound 288], the IC50 was > 45000 nM on human SCD1 and 2520 nM at human SCD5.

As to `CNCc1ccc(C(=O)Nc2ccc(Cc3cccc(Cl)c3)cn2)cn1` [Compound 289], the values for the IC50 at human SCD1 and on human SCD5 were > 45000 nM and 9200 nM, respectively.

With `O=C(Nc1ccc(Cc2cccc(Cl)c2)cn1)c1cnc(CO)c(F)c1` [Compound 290], the IC50 on human SCD1 and at human SCD5 was 10 nM each time.

`O=C(Nc1ccc(COc2cccc(Cl)c2)cn1)c1ccc(=O)n(C2CC2)c1` [Compound 291]: the IC50 on human SCD1 was determined as 22500 nM; at human SCD5, 4910 nM.

For the molecule `O=C(Nc1ccc(COc2cccc(Cl)c2)cn1)c1ccc(CO)nc1` [Compound 292], the IC50 on human SCD1 stood at 2070 nM; on human SCD5, 10 nM.

On to `O=C(Nc1ccc(COc2ccc(F)c(Cl)c2)cn1)c1ccc(CO)nc1` [Compound 293], for which the figures for the IC50 at human SCD1 and at human SCD5 were 80 nM and 40 nM, respectively.

With `CN1N=C(NC(=O)c2ccc(Cc3cccc(C(F)F)c3)cn2)CCC1=O` [Compound 294], the IC50 at human SCD1 is > 45000 nM; on human SCD5, 300 nM.

Regarding `O=C(Nc1ccc(Cc2cccc(Cl)c2)cn1)c1ccc(C(F)F)nc1` [Compound 295], the IC50 at human SCD1 stood at 22500 nM; on human SCD5, 340 nM.

Take `CN1N=C(C(=O)Nc2ccc(CCc3cccc(Cl)c3)cn2)CCC1=O` [Compound 296]: the IC50 at human SCD1 was > 45000 nM; at human SCD5, 860 nM.

Regarding `Cn1nc(C(=O)Nc2ccc(CCc3cccc(Cl)c3)cn2)ccc1=O` [Compound 297], the IC50 on human SCD1 was > 45000 nM; at human SCD5, 1200 nM.

With `Cn1cc(C(=O)Nc2ccc(C3CC3c3ccccc3)cn2)ccc1=O` (stereo not shown) [Compound 298], the half-inhibitory concentration (IC50) on human SCD1 was 2750 nM; at human SCD5, 340 nM.

Consider `O=C(Nc1ccc(Cc2cccc(Cl)c2)cn1)c1ccc(Br)nc1` [Compound 299], for which the concentration for half-maximal inhibition (IC50) was > 45000 nM on human SCD1 and 3790 nM on human SCD5.

Consider `Cn1nc(C(=O)Nc2ccc(Nc3cccc(F)c3)cn2)ccc1=O` [Compound 300], for which the IC50 at human SCD1 was > 45000 nM; on human SCD5, 5600 nM.

Regarding `CN(c1ccc(NC(=O)c2ccc(=O)n(C)n2)nc1)c1cccc(F)c1` [Compound 301], the IC50 on human SCD1 is > 45000 nM; on human SCD5, 5220 nM.

`CN(c1ccc(NC(=O)c2ccc(=O)n(C)c2)nc1)c1cccc(F)c1` [Compound 302]: the half-maximal inhibitory concentration (IC50) on human SCD1 is > 45000 nM; on human SCD5, 3340 nM.

As to `O=C(Nc1ccc(Nc2cccc(Cl)c2)cn1)c1ccc(=O)n(C2CC2)n1` [Compound 303], the 50% inhibitory concentration (IC50) at human SCD1 was 4180 nM; at human SCD5, 970 nM.

Turning to `O=C(Nc1ccc(Nc2cccc(F)c2)cn1)c1ccc(=O)n(C2CC2)n1` [Compound 304], the IC50 was > 45000 nM at human SCD1 and 2700 nM at human SCD5.

For the molecule `Cn1cc(NC(=O)N2CCC(Oc3cccc(Cl)c3)CC2)ccc1=O` [Compound 305], the IC50 on human SCD1 came to 27000 nM; on human SCD5, 6940 nM.

As for `Cn1nc(OC(=O)N2CCC(Oc3cccc(Cl)c3)CC2)ccc1=O` [Compound 307], the values for the IC50 on human SCD1 and at human SCD5 were 1170 nM and 570 nM, respectively.

`Cn1cc(NC(=O)N2CCC(Cc3cccc(Cl)c3)CC2)ccc1=O` [Compound 308]: the IC50 on human SCD1 stood at 22800 nM; at human SCD5, 3120 nM.

Consider `Cn1nc(NC(=O)N2CCC(Cc3cccc(Cl)c3)CC2)ccc1=O` [Compound 309], for which the results for the IC50 on human SCD1 and at human SCD5 were 540 nM and 50 nM, respectively.

Take `Cn1nc(NC(=O)c2ccc(Cc3cc(F)cc(F)c3)cn2)ccc1=O` [Compound 310]: the figures for the half-inhibitory concentration (IC50) on human SCD1 and on human SCD5 were 140 nM and 10 nM, respectively.

On to `Cn1cc(NC(=O)c2ccc(Cc3cc(F)cc(F)c3)cn2)ccc1=O` [Compound 311], for which the IC50 stood at 1020 nM at human SCD1 and 10 nM at human SCD5.

Consider `Cn1nc(NC(=O)c2ccc(Cc3ccc(F)c(F)c3)cn2)ccc1=O` [Compound 312], for which the values for the 50% inhibitory concentration (IC50) at human SCD1 and at human SCD5 were 1820 nM and 30 nM, respectively.

Turning to `Cn1cc(NC(=O)c2ccc(Cc3ccc(F)c(F)c3)cn2)ccc1=O` [Compound 313], the IC50 on human SCD1 amounted to 1860 nM; at human SCD5, 20 nM.

On to `Cn1cc(C(=O)Nc2ccc(Cc3ccc(F)c(F)c3)cn2)cn1` [Compound 314], for which the IC50 at human SCD1 stood at 100 nM; at human SCD5, 20 nM.
